The compounds below were run against T1, KRAS G12C 1-169, his-tagged protein, GDP-loaded (Homo sapiens, UniProt P01116, G12C) (assay: Biochemical assay: covalent modification of KRAS G12C measured by mass spectrometry (RapidFire/TOF or Q-Exactive)). Settings: covalent binding to (modification of) KRAS G12C after a ten minute incubation period.
T1 construct: KRAS G12C 1-169, his-tagged protein, GDP-loaded
Type: binding
In short: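 Intact-mass readout (TOF or Q-Exactive, charge-envelope deconvolution) gives percent covalent adduct from modified and unmodified species. Compound at 10, 30 or 100 μM was incubated at room temperature for 10 min to 24 h with 2 μM or 0.5 μM GDP-bound KRAS G12C 1-169 in Hepes/NaCl/MgCl2 buffer, then acid-quenched.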
With `C=CC(=O)N1C[C@H](C)N(c2nc(OCC(C)(C)N(C)C)nc3c(F)c(-c4c(C)ccc5cnn(C)c45)c(Cl)cc23)C[C@H]1C` [Compound 205, 1-((2R,5S)-4-(6-chloro-7-(1,6-dimethyl-1H-indazol-7-yl)-2-(2-(dimethylamino)-2-methylpropoxy)-8-fluoroquinazolin-4-yl)-2,5-dimethylpiperazin-1-yl)prop-2-en-1-one] the Binding % was “+++ (+++ indicates binding activity greater than 80%)”.
For `C=CC(=O)N1C[C@H](C)N(c2nc(N3CC(NC)C3)nc3c(F)c(-c4c(C)ccc5[nH]nc(C6CC6)c45)c(Cl)cc23)C[C@H]1C` [Compound 209, 1-((2R,5S)-4-((R)-6-chloro-7-(3-cyclopropyl-5-methyl-1H-indazol-4-yl)-8-fluoro-2-(3-(methylamino)azetidin-1-yl)quinazolin-4-yl)-2,5-dimethylpiperazin-1-yl)prop-2-en-1-one], the Binding % was “+++ (+++ indicates binding activity greater than 80%)”.
For `[2H]C([2H])([2H])N(C1CN(c2nc(N3C[C@@H](C)N(C(=O)C=C)C[C@@H]3C)c3cc(Cl)c(-c4c(C)ccc5cnn(C6CC6)c45)c(F)c3n2)C1)C([2H])([2H])[2H]` [Compound 213, 1-((2R,5S)-4-((S)-6-chloro-7-(1-cyclopropyl-6-methyl-1H-indazol-7-yl)-2-(3-(di-perdeuteromethylamino)azetidin-1-yl)-8-fluoroquinazolin-4-yl)-2,5-dimethylpiperazin-1-yl)prop-2-en-1-one], the Binding % was “+ (+ indicates binding activity greater than 0% and up to 50%)”.
`[2H]C([2H])([2H])N(C1CN(c2nc(N3C[C@@H](C)N(C(=O)C=C)C[C@@H]3C)c3cc(Cl)c(-c4c(C)ccc5cnn(C6CC6)c45)c(F)c3n2)C1)C([2H])([2H])[2H]` [Compound 214, 1-((2R,5S)-4-((R)-6-chloro-7-(1-cyclopropyl-6-methyl-1H-indazol-7-yl)-2-(3-(di-perdeuteromethylamino)azetidin-1-yl)-8-fluoroquinazolin-4-yl)-2,5-dimethylpiperazin-1-yl)prop-2-en-1-one] was tested, and the Binding % was “+++ (+++ indicates binding activity greater than 80%)”.
With `C=CC(=O)N1C[C@H](C)N(c2nc(OCC(C)(C)N(C)C)nc3c(F)c(-c4c(C)ccc5cnn(C6CC6)c45)c(Cl)cc23)C[C@H]1C` [Compound 215, 1-((2R,5S)-4-(6-chloro-7-(1-cyclopropyl-6-methyl-1H-indazol-7-yl)-2-(2-(dimethylamino)-2-methylpropoxy)-8-fluoroquinazolin-4-yl)-2,5-dimethylpiperazin-1-yl)prop-2-en-1-one] the Binding % was “+++ (+++ indicates binding activity greater than 80%)”.
In the case of `C=CC(=O)N1C[C@H](C)N(c2nc(OC3CCOC3)nc3c(F)c(-c4c(C)ccc5cnn(C)c45)c(Cl)cc23)C[C@H]1C` (stereo partly drawn) [Compound 216, 1-((2R,5S)-4-(6-chloro-7-(1,6-dimethyl-1H-indazol-7-yl)-8-fluoro-2-(tetrahydrofuran-3-yloxy)quinazolin-4-yl)-2,5-dimethylpiperazin-1-yl)prop-2-en-1-one], the Binding % is reported as “++ (++ indicates binding activity from 50 to 80%)”.
`C=CC(=O)N1C[C@H](C)N(c2nc(OC3CCCOC3)nc3c(F)c(-c4c(C)ccc5cnn(C)c45)c(Cl)cc23)C[C@H]1C` (stereo partly drawn) [Compound 225, 1-((2R,5S)-4-(6-chloro-7-(1,6-dimethyl-1H-indazol-7-yl)-8-fluoro-2-(tetrahydro-2H-pyran-3-yloxy)quinazolin-4-yl)-2,5-dimethylpiperazin-1-yl)prop-2-en-1-one] was tested, and the Binding % was “++ (++ indicates binding activity from 50 to 80%)”.
In the case of `C=CC(=O)N1C[C@H](C)N(c2nc(OCC(C)(C)N(C)C)nc3c(F)c(-c4c(C)ccc5[nH]nc(C)c45)c(Cl)cc23)C[C@H]1C` [Compound 226, 1-((2R,5S)-4-(6-chloro-7-(3,5-dimethyl-1H-indazol-4-yl)-2-(2-(dimethylamino)-2-methylpropoxy)-8-fluoroquinazolin-4-yl)-2,5-dimethylpiperazin-1-yl)prop-2-en-1-one], the Binding % is reported as “++ (++ indicates binding activity from 50 to 80%)”.
In the case of `C=CC(=O)N1C[C@H](C)N(c2nc(N3CC(N(C)C)C3)nc3c(F)c(-c4c(F)ccc5ccn(C)c45)c(Cl)cc23)C[C@H]1C` [Compound 229, 1-((2R,5S)-4-(6-chloro-2-(3-(dimethylamino)azetidin-1-yl)-8-fluoro-7-(6-fluoro-1-methyl-1H-indol-7-yl)quinazolin-4-yl)-2,5-dimethylpiperazin-1-yl)prop-2-en-1-one], the Binding % is reported as “+++ (+++ indicates binding activity greater than 80%)”.
In the case of `C=CC(=O)N1C[C@H](C)N(c2nc(O[C@H](C)CN(C)C)nc3c(F)c(-c4c(C)ccc5cnn(C)c45)c(Cl)cc23)C[C@H]1C` [Compound 230, 1-((2R,5S)-4-(6-chloro-7-(1,6-dimethyl-1H-indazol-7-yl)-2-((R)-1-(dimethylamino)propan-2-yloxy)-8-fluoroquinazolin-4-yl)-2,5-dimethylpiperazin-1-yl)prop-2-en-1-one], the Binding % is reported as “++ (++ indicates binding activity from 50 to 80%)”.
In the case of `C=CC(=O)N1C[C@H](C)N(c2nc(O[C@H](C)CN(C)C)nc3c(F)c(-c4c(C)ccc5[nH]nc(C6CC6)c45)c(Cl)cc23)C[C@H]1C` [Compound 231, 1-((2R,5S)-4-(6-chloro-7-(3-cyclopropyl-5-methyl-1H-indazol-4-yl)-2-((R)-1-(dimethylamino)propan-2-yloxy)-8-fluoroquinazolin-4-yl)-2,5-dimethylpiperazin-1-yl)prop-2-en-1-one], the Binding % is reported as “++ (++ indicates binding activity from 50 to 80%)”.
`C=CC(=O)N1C[C@H](C)N(c2nc(O[C@H](C)CN(C)C)nc3c(F)c(-c4c(C)ccc5[nH]nc(C)c45)c(Cl)cc23)C[C@H]1C` [Compound 232, 1-((2R,5S)-4-(6-chloro-7-(3,5-dimethyl-1H-indazol-4-yl)-2-((R)-1-(dimethylamino)propan-2-yloxy)-8-fluoroquinazolin-4-yl)-2,5-dimethylpiperazin-1-yl)prop-2-en-1-one] was tested, and the Binding % was “++ (++ indicates binding activity from 50 to 80%)”.
With `C=CC(=O)N1C[C@H](C)N(c2nc(C#CCN(C)C)nc3c(F)c(-c4c(C)ccc5cnn(C)c45)c(Cl)cc23)C[C@H]1C` [Compound 233, 1-((2R,5S)-4-(6-chloro-7-(1,6-dimethyl-1H-indazol-7-yl)-2-(3-(dimethylamino)prop-1-ynyl)-8-fluoroquinazolin-4-yl)-2,5-dimethylpiperazin-1-yl)prop-2-en-1-one] the Binding % was “+++ (+++ indicates binding activity greater than 80%)”.
For `C=CC(=O)N1C[C@H](C)N(c2nc(OC[C@@H]3CCCN3C(C)C)nc3c(F)c(-c4c(C)ccc5[nH]nc(C6CC6)c45)c(Cl)cc23)C[C@H]1C` [Compound 237, 1-((2R,5S)-4-(6-chloro-7-(3-cyclopropyl-5-methyl-1H-indazol-4-yl)-8-fluoro-2-(((S)-1-isopropylpyrrolidin-2-yl)methoxy)quinazolin-4-yl)-2,5-dimethylpiperazin-1-yl)prop-2-en-1-one], the Binding % was “++ (++ indicates binding activity from 50 to 80%)”.
`C=CC(=O)N1C[C@H](C)N(c2nc(OC[C@@H]3CCCN3C(C)C)nc3c(F)c(-c4c(C)ccc5cnn(C)c45)c(Cl)cc23)C[C@H]1C` [Compound 238, 1-((2R,5S)-4-(6-chloro-7-(1,6-dimethyl-1H-indazol-7-yl)-8-fluoro-2-(((S)-1-isopropylpyrrolidin-2-yl)methoxy)quinazolin-4-yl)-2,5-dimethylpiperazin-1-yl)prop-2-en-1-one] was tested, and the Binding % was “++ (++ indicates binding activity from 50 to 80%)”.

Source: patent publication US11377441B2, “Covalent inhibitors of KRAS” (Araxes Pharma LLC, priority 2017, dated 2022)
